Source: PubChem BioAssay (NCI)
Several values for one entry are separate records, joined by “and”; a condition that tells them apart may be missing. Identical values can stand only once.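 All cell lines were grown in 96-well plates and treated with compound for 48 hours. At the GI50, growth is halved. TGI marks complete inhibition of growth.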

Columns and labels:
Assay in all cases: NCI anticancer screen, dose series, 48 h
K-562 leukemia = tested on: K-562 leukemia
HT29 colon = tested on: HT29 colon
NCI-H460 lung = tested on: NCI-H460 lung
HOP-62 NSCLC = tested on: HOP-62 NSCLC
COLO 205 colon = tested on: COLO 205 colon
DU-145 prostate = tested on: DU-145 prostate
HCC-2998 colon = tested on: HCC-2998 colon
OVCAR-3 ovarian = tested on: OVCAR-3 ovarian
HL-60(TB) leukemia = tested on: HL-60(TB) leukemia
A498 renal = tested on: A498 renal
SF-539 CNS = tested on: SF-539 CNS

Structure (SMILES) | TGI (K-562 leukemia) | TGI (HT29 colon) | TGI (NCI-H460 lung) [µM] | TGI (HOP-62 NSCLC) [µM] | TGI (COLO 205 colon) | TGI (DU-145 prostate) [µM] | TGI (HCC-2998 colon) | TGI (OVCAR-3 ovarian) | GI50 (NCI-H460 lung) [µM] | GI50 (HL-60(TB) leukemia) [µM] | TGI (HL-60(TB) leukemia) [µM] | GI50 (A498 renal) [µM] | TGI (A498 renal) [µM] | TGI (SF-539 CNS) [µM]
Cc1cnc2sn(-c3ccc([N+](=O)[O-])cc3)c(=O)c2c1 | > 100 µM | > 100 µM | > 100 | 52.4 | > 100 µM | > 100 | > 100 µM | > 100 µM | – | – | – | – | – | –
CN(Cc1cnc2nc(N)nc(N)c2n1)c1ccc(C(=O)N[C@@H](CCC(=O)O)C(=O)O)cc1 | 206 µM and > 250 µM | 240 µM and > 250 µM | > 245 | – | 249 µM and > 250 µM | > 250 | 191 µM and > 250 µM | 217 µM and > 250 µM | 0.00707 | 0.0259 | 178 | 1.05 | 116 | –
O=CNNC(=O)Nc1cccc2ccccc12 | > 100 µM | > 100 µM | > 100 | > 100 | > 100 µM | > 100 | > 100 µM | – | – | – | > 100 | – | – | > 100
OC1(c2ccc(-c3ccccc3)cc2)c2ccccc2C2=NCCN21 (stereo unspecified) | > 100 µM | 50.3 µM | > 100 | 43.5 | 48.3 µM | > 100 | 40.4 µM | 63.6 µM | – | – | > 100 | – | > 100 | –
O=c1cc(CO)oc2c3c(cc(O)c12)OCC(COC1OC(CO)C(O)C(O)C1O)=CC3 (stereo unspecified) | > 100 µM | > 100 µM | > 100 | > 100 | > 100 µM | – | > 100 µM | > 100 µM | – | – | > 100 | – | > 100 | > 100
COc1ccc(C(=O)O[C@H]2[C@@H]3C=CO[C@@H](OC4OC(CO)C(O)C(O)C4O)[C@@H]3[C@@]3(CO)O[C@@H]23)cc1O (stereo partly specified) | > 100 µM | > 100 µM | > 100 | > 100 | > 100 µM | – | > 100 µM | > 100 µM | – | – | > 100 | – | > 100 | > 100
CO/N=C(/C)c1cccc(Nc2nc3ccccc3c3[nH]c4ccccc4c23)c1 | > 100 µM | 11.2 µM | 11.3 | 21.7 | 20.3 µM | 25 | – | 20.6 µM | – | – | 53.3 | – | – | 28.1
CCN1CCC(O)(c2ccc(Oc3ccc(F)cc3)cc2)C(C(=O)c2ccc(Oc3ccc(F)cc3)cc2)C1 (stereo unspecified) | > 100 µM | 23.6 µM | – | 30.1 | 33.5 µM | 24.7 | 23.6 µM | 28.6 µM | – | – | – | – | – | 33.2
O=C(/C=C/c1ccccc1)CSc1ncn[nH]1 | > 100 µM | > 100 µM | > 100 | > 100 | > 100 µM | > 100 | > 100 µM | > 100 µM | – | – | > 100 | – | – | > 100
CC(NC(=O)NC(C)(C)C)NC(=O)C(N)CC(=O)O (stereo unspecified) | > 100 µM | > 100 µM | > 100 | > 100 | > 100 µM | > 100 | – | > 100 µM | – | – | – | – | > 100 | > 100
COc1ccc(C(c2c(O)c3ccccc3n(-c3ccccc3)c2=O)c2c(O)c3ccccc3n(-c3ccccc3)c2=O)cc1 | > 100 µM | – | – | > 100 | > 100 µM | – | > 100 µM | > 100 µM | – | – | – | – | – | > 100
COc1ccc(N=NC(C(=O)c2ccccc2)C(=O)c2ccccc2)cc1 | > 100 µM | 74 µM | 68.4 | 68.5 | > 100 µM | – | 91.1 µM | > 100 µM | – | – | 32.7 | – | > 100 | 84.9
CCOc1ccc2[nH]c3c(C)c4ccncc4c(C)c3c2c1 | > 100 µM | 2.18 µM | 1.68 | 2.3 | 3.04 µM | – | 2.74 µM | 17.7 µM | – | – | – | – | 3.2 | 2.94
CCOC(=O)C1=C(O)C2C3CC4C2C(O)=C(C(=O)OCC)C2C1C3C42 (stereo unspecified) | > 100 µM | > 100 µM | > 100 | > 100 | > 100 µM | > 100 | – | > 100 µM | – | – | > 100 | – | > 100 | > 100
O=C(/C=C/c1ccc(-c2ccccc2)cc1)NCc1ccc(C(=O)NCc2ccccc2)cc1 | – | > 100 µM | > 100 | > 100 | > 100 µM | > 100 | > 100 µM | > 100 µM | – | – | – | – | > 100 | > 100
COC(=O)CCC1=C(CC(=O)OC)C(C)(OC)N=C1NC(=O)OCc1ccccc1 (stereo unspecified) | > 100 µM | > 100 µM | > 100 | > 100 | > 100 µM | > 100 | > 100 µM | – | – | – | – | – | > 100 | > 100
O=C(/C=C/c1cccc(Oc2ccccc2)c1)NCc1ccc(C(=O)NCc2ccccc2)cc1 | > 100 µM | > 100 µM | > 100 | 18.8 | > 100 µM | > 100 | > 100 µM | > 100 µM | – | – | – | – | > 100 | > 100
CN1C/C(=C\c2cccs2)C(O)/C(=C/c2cccs2)C1 (stereo unspecified) | > 100 µM | > 100 µM | > 100 | > 100 | > 100 µM | > 100 | > 100 µM | > 100 µM | – | – | – | – | > 100 | –
CC1(C)OC2[C@@H](CO[C@@]3([C@@H](O)CCO)OC(C)(C)O[C@@H]23)O1 (stereo partly specified) | > 100 µM | > 100 µM | > 100 | > 100 | > 100 µM | > 100 | > 100 µM | > 100 µM | – | – | > 100 | – | – | > 100
CC1=NC2=Nc3nc(C)cc[n+]3CN2C=C1 | – | > 100 µM | > 100 | > 100 | > 100 µM | > 100 | > 100 µM | > 100 µM | – | – | – | – | > 100 | > 100
CN(C)c1ccc(C=NCC2CCCN3CCCCC23)cc1 (stereo unspecified) | – | – | > 100 | > 100 | > 100 µM | > 100 | > 100 µM | > 100 µM | – | – | – | – | – | –
NC1=C(NC(=O)Cc2ccccc2F)C(=O)c2ccccc2C1=O | > 100 µM | > 100 µM | > 100 | 51 | > 100 µM | – | > 100 µM | 66.9 µM | – | – | > 100 | – | – | 62
